{"source": "patent US10406097B2", "about": "“Extract of Arthrobacter agilis for use in particular in cosmetics” (priority 2013, dated 2019)", "test_system": "Normal human keratinocytes (NHK)", "experiment": "Carbonylation test (OxyELISA) after UV/visible irradiation", "type": "cell-based", "conditions": "SBE 200 nM; Tocopherol acetate 20 μM; 2 hours contact; 120 kJ/m^2; P-value <0.01", "procedure": "By following the same UV/visible irradiation protocol as the one used above for the comet assay, the rate of carbonylation of keratinocytes in the presence of SBE and tocopherol acetate was measured.\n• Normal human keratinocytes (NHK) (T6)-10^6 cells/condition • Conditions: • 1% THF solvent control • SBE 200 nM • Tocopherol acetate 20 μM • Each condition is carried out in triplicate. • Contact with KHNs in different experimental conditions for 2 hours. • UVB/UVA/Visible irradiation at 120 kJ/m^2 of the cells placed in PBS by a Suntest CPS+ solar simulator (Atlas Material Testing Technology) at 4° C. Negative controls are maintained at 4° C. for the same duration as the irradiation. • Trypsination of the cells post irradiation. Rinsing of the iced PBS. Elimination of the PBS and immediate freezing of the cell pellets at −80° C. 2—Measurement of the Carbonylation • The proteins are extracted after lysis of the cells and their concentration is measured using the Bradford test. • The proteins are derived by 2,4-dinitrophenylhydrazine (DNPH), which binds to the carbonyl groups. • The carbonylation rate is then measured on ELISA plates (OxyELISA™ Oxidized Protein Quantitation Kit, Millipore) at 450 nm. Results", "data": [{"compound": "CC(=O)Oc1c(C)c(C)c2c(c1C)CCC(C)(CCC[C@H](C)CCC[C@H](C)CCCC(C)C)O2", "note": "(stereo partly shown) [tocopherol acetate]", "values": [{"measurement": "increase of the rate of carbonylation of keratinocyte proteins after UV/visible irradiation", "value": "decreases significantly"}]}]}
